Data as given in patent US20070254917A1, “INTRACELLULAR RECEPTOR MODULATOR COMPOUNDS AND METHODS” (priority 2004, published 2007).

Target: T1, human mineralocorticoid Receptor-α (MRα) (Homo sapiens, UniProt P08235)
T1 construct: made in house; host or cells: Sf21 insect cells (baculovirus), as described for GR
T1 sequence (P08235 1-984): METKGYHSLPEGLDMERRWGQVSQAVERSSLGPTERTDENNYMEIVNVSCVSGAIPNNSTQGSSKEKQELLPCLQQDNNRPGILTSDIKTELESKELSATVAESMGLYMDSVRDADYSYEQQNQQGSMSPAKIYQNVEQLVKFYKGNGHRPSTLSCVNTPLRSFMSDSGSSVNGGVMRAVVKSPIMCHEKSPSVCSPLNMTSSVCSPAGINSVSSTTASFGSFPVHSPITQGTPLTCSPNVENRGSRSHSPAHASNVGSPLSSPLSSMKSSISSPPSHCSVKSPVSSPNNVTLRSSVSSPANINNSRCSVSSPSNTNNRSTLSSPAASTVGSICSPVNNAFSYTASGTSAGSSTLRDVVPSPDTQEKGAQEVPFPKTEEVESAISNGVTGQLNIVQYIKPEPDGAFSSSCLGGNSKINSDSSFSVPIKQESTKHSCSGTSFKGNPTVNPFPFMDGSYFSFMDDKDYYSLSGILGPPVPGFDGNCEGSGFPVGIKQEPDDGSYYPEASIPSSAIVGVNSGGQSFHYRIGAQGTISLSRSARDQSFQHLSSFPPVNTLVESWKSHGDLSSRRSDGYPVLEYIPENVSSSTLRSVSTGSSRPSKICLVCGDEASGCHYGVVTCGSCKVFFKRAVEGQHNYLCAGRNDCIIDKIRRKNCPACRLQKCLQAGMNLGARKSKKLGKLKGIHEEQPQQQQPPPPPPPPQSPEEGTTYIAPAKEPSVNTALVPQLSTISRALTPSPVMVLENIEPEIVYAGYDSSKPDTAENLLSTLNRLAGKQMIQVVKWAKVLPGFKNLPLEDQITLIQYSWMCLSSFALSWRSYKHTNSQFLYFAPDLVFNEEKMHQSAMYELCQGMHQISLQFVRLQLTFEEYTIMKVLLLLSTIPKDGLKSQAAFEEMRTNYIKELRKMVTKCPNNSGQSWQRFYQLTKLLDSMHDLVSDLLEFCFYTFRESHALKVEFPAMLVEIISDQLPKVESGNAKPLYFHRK
Assay: Mineralocorticoid binding assay ([3H]aldosterone displacement, MR lysate)
Protocol: Human mineralocorticoid receptor protein was prepared from a baculovirus expression plasmid comprising cDNA encoding human mineralocorticoid Receptor-α (MRα), as described for GR (Example 158).
Binding assay samples were prepared in separate mini-tubes in a 96-well format at 4° C. Each binding assay sample was prepared in a volume of 250 μl of MR-Assay Buffer (10% glycerol, 10 mM sodium phosphate, 10 mM potassium fluoride, 20 mM sodium molybdate, 0.25 mM CHAPS, 2 mM DTT, (adjusted to pH 7.35)) containing 5-10 μg of MR lysate; 2-4 nM of [^3H]aldosterone; unlabeled aldosterone; and a test compound. Each test compound was assayed at several different concentrations, ranging from 0 to 10^−5 M and each was tested in the presence and in the absence of several different concentrations of unlabeled aldosterone. Each concentration of each test compound was assayed in triplicate. The assay samples were incubated for 16 hours at 4° C.
After incubation, protein was precipitated with hydroxylapatite, collected, and counted as described in Example 158 for GR. Specific binding for a particular sample was calculated using the same equation as was used for GR: (Sample CPM)−(Average Non-specific CPM) Average Non-specific CPM was defined as the amount of radioactivity from samples comprising an excess (i.e. 1000 nM) of unlabeled aldosterone. […] Ki values were determined using the Cheng-Prusoff equation using a previously determined Kd value for aldosterone: Ki=IC50/(1+[L]/Kd) [L]=concentration of labeled aldosterone Kd=dissociation constant of labeled aldosterone

Row | SMILES | Ki [nM]
1 | Cc1cc(-c2cncnc2)c(Cl)c2c1NC(C)(C)CC2C (racemic) [Compound 256, (±)-5-Chloro-1,2,3,4-tetrahydro-2,2,4,8-tetramethyl-6-(pyrimidin-5-yl)quinoline] | 60
2 | CC(=O)Oc1c(-c2cccc(C#N)c2)cc(C)c2c1C(C)CC(C)(C)N2 (racemic) [Compound 245, (±)-5-Acetoxy-6-(3-cyanophenyl)-1,2,3,4-tetrahydro-2,2,4,8-tetramethylquinoline] | 47
3 | CC1=CC(C)(C)Nc2c(C)cc(-c3cccc(C)c3)c(Cl)c21 [Compound 234, 5-Chloro-1,2-dihydro-2,2,4,8-tetramethyl-6-(3-methylphenyl)quinoline] | 85

Molecules with a lower Ki, results first:

Row | Ki [nM] | SMILES
4 | 22 | CC1=CC(C)(C)Nc2ccc(-c3cccc(C(N)=O)c3)c(Cl)c21 [Compound 239, 6-(3-Carbamoylphenyl)-5-chloro-1,2-dihydro-2,2,4-trimethylquinoline]
5 | 18 | CCC(=O)c1cccc(-c2cc(C)c3c(c2Cl)C(C)=CC(C)(C)N3)c1 [Compound 238, 5-Chloro-1,2-dihydro-2,2,4,8-tetramethyl-6-[3-(propionyl)phenyl]quinoline]
6 | 12 | CC1=CC(C)(C)Nc2ccc(-c3cccc(C(F)(F)F)c3)c(Cl)c21 [Compound 230, 5-Chloro-1,2-dihydro-2,2,4-trimethyl-6-[3-(trifluoromethyl)phenyl]quinoline]
7 | 6 | Cc1cc(-c2csc(C#N)c2)c(Cl)c2c1NC(C)(C)CC2C (racemic) [Compound 244, (±)-5-Chloro-6-(5-cyanothiophen-3-yl)-1,2,3,4-tetrahydro-2,2,4,8-tetramethylquinoline]
